Data taken from ChEMBL document CHEMBL3351613, “Indolylarylsulfones carrying a heterocyclic tail as very potent and broad spectrum HIV-1 non-nucleoside reverse transcriptase inhibitors” (J Med Chem, 2014).
Active and inactive are the calls of the source. The calls are words filed in the database; no cut-off is given here.

Legend:
[1] = tested on: Human immunodeficiency virus 1; test: Antiviral activity against HIV1 Clade G (HH8793) infected in human PBMC assessed as reduction in p24 antigen production; type: functional, organism-based; settings: Human immunodeficiency virus 1, Clade G (HH8793)
[2] = tested on: Human immunodeficiency virus 1; type: functional, organism-based; settings: Human immunodeficiency virus 1, NL4-3, MT4
[3] = Stability in human plasma assessed as remaining unmodified parent compound level after 24 hrs; type: ADME, cell-free; settings: read-out: Stability
[4] = biological target: Human immunodeficiency virus type 1 reverse transcriptase (Human immunodeficiency virus 1, UniProt Q72547, L100I)
Description: Inhibition of wild type HIV1 reverse transcriptase L100I mutant assessed as reduction in enzyme activity

[5] = biological target: T1, Human immunodeficiency virus type 1 reverse transcriptase (Human immunodeficiency virus 1, UniProt Q72547)
Description: Inhibition of wild type HIV1 reverse transcriptase assessed as reduction in enzyme activity

[6] = tested on: Human immunodeficiency virus 1; test: Antiviral activity against HIV1 Clade B (BaL) infected in human PBMC assessed as reduction in p24 antigen production; type: functional, organism-based; settings: Human immunodeficiency virus 1, Clade B (BaL)
[7] = Permeability by PAMPA method; type: ADME
[8] = tested on: Human immunodeficiency virus 1; test: Antiviral activity against HIV1 Clade D (UG270) infected in human PBMC assessed as reduction in p24 antigen production; type: functional, organism-based; settings: Human immunodeficiency virus 1, Clade D (UG270)
[9] = tested on: Human immunodeficiency virus 2; test: Antiviral activity against HIV2 ROD infected in human PBMC cells assessed as reduction in p24 antigen production; type: functional, organism-based; settings: ISOLATE ROD
[10] = tested on: Human immunodeficiency virus 1; test: Antiviral activity against HIV1 Clade C (DJ259) infected in human PBMC assessed as reduction in p24 antigen production; type: functional, organism-based; settings: Human immunodeficiency virus 1, Clade C (DJ259)
[11] = tested on: Human immunodeficiency virus 1; test: Antiviral activity against HIV1 Clade A/E (ID12) infected in human PBMC assessed as reduction in p24 antigen production; type: functional, organism-based; settings: Human immunodeficiency virus 1, Clade A/E (ID12)
[12] = biological target: Human immunodeficiency virus type 1 reverse transcriptase (Human immunodeficiency virus 1, UniProt Q72547, K103N)
Description: Inhibition of wild type HIV1 reverse transcriptase K103N mutant assessed as reduction in enzyme activity

[13] = tested on: Human immunodeficiency virus 1; test: Antiviral activity against HIV1 Clade F (BZ162) infected in human PBMC assessed as reduction in p24 antigen production; type: functional, organism-based; settings: Human immunodeficiency virus 1, Clade F (BZ162)
[14] = tested on: Human immunodeficiency virus 1; test: Antiviral activity against HIV1 Clade A (UG273) infected in human PBMC assessed as reduction in p24 antigen production; type: functional, organism-based; settings: Human immunodeficiency virus 1, Clade A (UG273)
[15] = Drug retention assessed as membrane retention by PAMPA method; type: physicochemical
[16] = biological target: T1, Human immunodeficiency virus type 1 reverse transcriptase; remark: listed apart in the source
Plasma = test: Stability in human plasma assessed as compound hydrolysis after 24 hrs; type: ADME, cell-free
[17] = biological target: Human immunodeficiency virus type 1 reverse transcriptase (Human immunodeficiency virus 1, UniProt Q72547, V106A); test: Inhibition of […] HIV1 reverse transcriptase V106A mutant assessed as reduction in enzyme activity
[18] = tested on: Human immunodeficiency virus 1; type: functional, organism-based; settings: Human immunodeficiency virus 1, NL4-3, MT4; remark: listed apart in the source
[19] = tested on: Human immunodeficiency virus 1; type: functional, organism-based; settings: Human immunodeficiency virus 1, NL4-3, MT4; remark: listed apart in the source
[20] = tested on: Human immunodeficiency virus 1; test: Antiviral activity against HIV1 NL4-3 infected in human MT4 cells assessed as reduction in virus-induced cell death by MTT assay; type: functional, organism-based; settings: Human immunodeficiency virus 1, NL4-3, MT4

With `Cc1cc(C)cc(S(=O)(=O)c2c(C(=O)N[C@H](C)c3ccncc3)[nH]c3ccc(Cl)cc23)c1` as the molecule, how does the EC50 [1] read?
Its EC50 is 1.7 nM.

And the EC50 [2]?
Its EC50 is 2.1 nM.

And the remaining at 24 h [3]?
The remaining at 24 h was 99%.

And the IC50 [4]?
The IC50 was 3 nM.

And the IC50 [5]?
The IC50 was 18 nM.

What about the EC50 [6] of the same molecule?
Its EC50 is 2.1 nM.

What about the Papp [7] of the same molecule?
Its Papp is 12.4 ×10⁻⁶ cm/s.

And the EC50 [8]?
Its EC50 is 1.8 nM.

What about the Activity [9] of the same molecule?
Its Activity is “inactive”.

What about the EC50 [10] of the same molecule?
Its EC50 is 0.7 nM.

And the EC50 [11]?
The EC50 was 1.2 nM.

And the IC50 [12]?
The IC50 was 50 nM.

What about the EC50 [13] of the same molecule?
Its EC50 is 1.6 nM.

And the EC50 [14]?
The EC50 was 3.4 nM.

And the Drug uptake [15]?
The Drug uptake was 0%.

And the IC50 [16]?
The IC50 was 2230 nM.

What about the Stability (Plasma) of the same molecule?
Its Stability is “Stable”.

What about the IC50 [17] of the same molecule?
The IC50 was 26 nM.

What about the EC50 [18] of the same molecule?
Its EC50 is 150 nM.

What about the EC50 [19] of the same molecule?
The EC50 was 933 nM.

What about the EC50 [20] of the same molecule?
Its EC50 is 0.2 nM.
